Assays:
[1] = test system: pentylentetrazole (PTZ)-induced convulsion; experiment: Anti-convulsant effect, pentylentetrazole (PTZ) test; assay type: in vivo; conditions: 10 mg/kg intraperitoneally, PTZ 80 mg/kg subcutaneously; for mortality rate / Induction percentage of convulsion: (animals/total); for mortality rate: negative control 70(17/23); for Induction percentage of convulsion: negative control 100(23/23); for Initiation time of convulsion: negative control 5.0 ± 0.7; for Duration of convulsion: negative control 46.7 ± 3.3
Description: An experiment was performed by the method of Ali et al. (Ali, A. et al. 2006, Pharmacological Reports, 58: 242-245). A 10 mg/kg dose of compound was intraperitoneally administered to identify the anti-convulsant effect and the effect was observed (Table 8). Researching the process of activity was performed by the Anti-epileptic Drug Development Program (ADD) of NIH during development of the anti-convulsant drug. One of the assessed items of anti-convulsant activity in the first step of this program is the pentylentetrazole (PTZ) test. […] After 10 mg/kg of the testing drug was administered, assessment was performed by estimating the initiation time of convulsion, duration until convulsion completely disappeared and mortality rate. It was assessed as having an anti-convulsant effect when a single episode of clonic spasm was not shown over 5 seconds on at least one of the 4 laboratory animals after PTZ administration.

[2] = test system: mixed culture of nerve cells-glial cells; experiment: Protecting effect on NMDA-induced nerve cell death (LDH release); assay type: cell-based, ICR mouse; conditions: 100 μM NMDA, LDH release after 24 hours
Description: Isolation and culture of nerve cells were performed by Choi's method (Choi, D. W. 1985, Neurosci. Lett., 58: 293-297). That is, the cortex was isolated in fetus ICR mouse that was 14 days pregnant, and then single cells were obtained from the tissue using pipette. The cells were aliquoted into 2×10^5/well density in a 24-well plate (Falcon) in which glial cells of cerebral cortex had been cultured in an incubator maintained at 37° C. with 5% CO2 for over 3 weeks. The culture medium was supplemented with MEM (minimum essential medium, Sigma), 2 mM glutamine, 21 mM glucose, 26.5 mM bicarbonate, 10% fetal bovine serum (FBS). In 3-5 days after aliquot, 10 μM Ara-C (cytosine arabinoside) was treated to suppress proliferation of neuroglia. And it was treated with 100 μM NMDA and 1 μg/mL or 2 μg/mL of each sample (compound) to induce the death of nerve cells due to excitable toxicity for 20 minutes, in 12-15 days after aliquot. Because of nerve cell death, lactate dehydrogenase (LDH) accumulated in proportion to the number of dead cells. In 24 hours after drug treatment, the amount of dehydrogenase (LDH) released to outside of cells was measured by using an […] measurement kit (CytoTox 96, Promega). After the reaction was completed, the change of absorbance depending on the amount of LDH was measured by using a microplate spectrophotometer.

thoracic aorta of rats = experiment: Relaxing effect on thoracic aorta contracted by phenylephrine (organ bath); design: species or system rats of SD species; conditions: 67 μg/mL, phenylephrine 0.5 μM, mean n = 3; for inhibition at 67 µg/mL: Rattus norvegicus, read-out: Relaxation percentage
From the text: After male rats of SD species (250-300 g) were anesthetized by inhalation of ether, their thoracic aortas were extracted and put into a Krebs buffer (mM; NaCl 118, NaHCO3 27.3, KCl 4.8, MgSO4 1.2, KH2PO4 1.0, CaCl2 1.25, glucose 11.1). 2 mm of aortic ring was made under dissecting microscope and cultured in an organ bath to measure the tension of blood vessels. The organ bath was filled with Krebs buffer and saturated with 95% O2, 5% CO2 to maintain dissolved oxygen and physiological pH. Changing of tension was measured by a tension meter (Hugo-sachs, model K30) and recorded by physiological recorder (Coulbourn polygraph). The length of the blood vessels was increased step by step to make 1.0 g of basal tension for 90 minutes. The equilibrated blood vessel was contracted by phenylephrine (0.5 μM). When the contraction furrow reached equilibrium, compounds were added, followed by observation of relaxation response.

[3] = test system: middle cerebral artery occlusion (MCAO) model; experiment: Anti-stroke effect in MCAO model, intravenous administration around reperfusion; assay type: in vivo, rats of SD species; conditions: for Inhibitory percentage compared to negative control / Infarcted volume (Mean ± standard deviation): 1 mg/kg iv; for Infarcted volume (Mean ± standard deviation): negative control 0.43 ± 0.02
Description: Male rats of SD species with 290-300 g of body weight were used as laboratory animals, and 8 rats were used in each experiment group. The operation was performed by using the method of Nagasawa et al. (Nagasawa, H. and Gogure, K. 1989, Stroke, 20: 1037-1043).
The rats were anesthetized by Ketamine, and the operation was performed as body temperature was maintained using thermoplate. The cerebral region was incised following the median line of the neck, and the left common carotid artery, internal carotid artery and external carotid artery were separated, taking care not to damage the vagus nerve. The common carotid artery and external carotid artery were ligatured, and a probe was inserted into the internal carotid artery from the branch point of the internal and external carotid arteries. And then the fundus of the middle cerebral artery was occluded by ligature just on the upper side of the insertion region. A probe was made by heating the end of a 4-0 nylon surgical suture (Dafilon, B. Braun, Germany) and cut into 30 mm. The 7-9 mm end of the probe was coated with the mixture of silcon (Xantopren VL plus, Heraeus Kulzer, Germany) and curing agent (Optosyl-Xantopren VL plus, Heraeus Kulzer, Germany), and the thickness was to be 0.3-0.4 mm. After the intervention of the probe insertion and the animals came out of the anesthetic, individuals in which neurological deficit symptom (right direction circling) was observed were included in the ischemia group.
After 3 hours of ischemia, the inserted probe was removed to reperfuse blood circulation. The brain was extracted after 24 hours, followed by histological staining.
The compound 3 was administered at a programmed time before or after insertion of the probe with oral or intravenous administration. TTC (2,3,5-triphenyltetrazolium chloride) staining was performed to estimate the damage of brain tissue by ischemia. Procephalon of the extracted brain was sliced into 2 mm of sequential slice by using brain matrix (ASI instrument, Warren, Mich., USA). The slices were put into 2% of TTC solution and incubated at 37° C. for 60 minutes for staining. The TTC stained brain slice was fixed in 10% of formalin buffer and the front of the each slice was photographed with a digital camera. The infarcted areas (cm^2) that were not stained with deep red in each acquired image were measured using an image analyzer, and total infarcted volume (cm^3) was calculated by multiplying the thickness of the slices
In the experiment, the probe was removed after stoke induction so that circulation was reperfused.

[4] = treatment time 0.5 after reperfusion
[5] = treatment time 1 after reperfusion
[6] = treatment time 2 after reperfusion
[7] = treatment time 4 after reperfusion
[8] = treatment time 6 after reperfusion
[9] = treatment time 12 after reperfusion
[10] = treatment time 18 after reperfusion
[11] = treatment time 24 after reperfusion
[12] = treatment time −0.5 after reperfusion

SMILES	mortality rate [1]	Induction percentage of convulsion [1]	Initiation time of convulsion [1] [min]	Duration of convulsion [1] [min]	Inhibitory effect of cell death by NMDA-induced excitable neurotoxicity ([2]; 1 μg/ml compound) [%]	Inhibitory effect of cell death by NMDA-induced excitable neurotoxicity ([2]; 2 μg/ml compound) [%]	inhibition at 67 µg/mL (thoracic aorta of rats) [%]	also measured
O=C(c1ccccc1)N(CCCCNCCCn1c(=O)[nH]c2ccccc2c1=O)CCCn1c(=O)[nH]c2ccccc2c1=O [Compound 10, N-[3-(2,4-dioxo-1,4-dihydro-2H-quinazolin-3-yl)propyl]-N-{4-[3-(2,4-dioxo-1,4-dihydro-2H-quinazolin-3-yl)propylamino]butyl}benzamide]	17(1/6) %	100(6/6) %	5.8 ± 1.4	49.9 ± 5.4	15.4	13.7	4.9	
CC(=O)N(CCCCNCCCn1c(=O)[nH]c2ccccc2c1=O)CCCNC(=O)c1ccc(O)cc1 [Compound 19, N-[3-(acetyl-{4-[3-(2,4-dioxo-1,4-dihydro-2H-quinazolin-3-yl)propylamino]butyl}amino)propyl]-4-hydroxybenzamide]	0(0/6) %	50(3/6) %	38.7 ± 1.5	1.8 ± 2.7	40.1	45.2	11.8	
CN1C(=O)CN=C(c2ccccc2)c2cc(Cl)ccc21 [Diazepam, reference compound]	0(0/6) %	0(0/6) %						
CS(=O)(=O)N(CCCCN(CCCn1c(=O)[nH]c2ccccc2c1=O)S(C)(=O)=O)CCCn1c(=O)[nH]c2ccccc2c1=O [Compound 18, N-[3-(2,4-dioxo-1,4-dihydro-2H-quinazolin-3-yl)propyl]-N-(4-{[3-(2,4-dioxo-1,4-dihydro-2H-quinazolin-3-yl)propyl]methansulfonylamino}butyl)methansulfonamide]	0(0/6) %	83(5/6) %	19.1 ± 8.4	5.2 ± 3.4	44.4	21.0	42.4	
CC(=O)N(CCCCNCCCNC(=O)c1ccc(O)cc1)CCCn1c(=O)[nH]c2ccccc2c1=O [Compound 20, N-[3-(4-{acetyl-[3-(2,4-dioxo-1,4-dihydro-2H-quinazolin-3-yl)propyl]amino}butylamino)propyl]-4-hydroxybenzamide]	0(0/6) %	50(3/6) %	44.7 ± 11.0	0.9 ± 1.9	36.4	42.5	15.2	
O=c1[nH]c2ccccc2c(=O)n1CCCNCCCCN(CCCn1c(=O)[nH]c2ccccc2c1=O)Cc1ccccc1 [Compound 9, 3-{3-[4-({N-[3-(2,4-dioxo-1,4-dihydro-2H-quinazolin-3-yl)propyl]-N-benzyl}amino)butylamino]propyl}-1H-quinazoline-2,4-dione]	67(4/6) %	100(6/6) %	4.4 ± 0.7	39.8 ± 10.3	21.4	33.3		Relaxation percentage (thoracic aorta of rats): 95.5%
C[C@]12N[C@H](Cc3ccccc31)c1ccccc12 [MK-801]					49.0	63.6		Inhibitory percentage compared to negative control [3, 4]: 50.2%; Infarcted volume (Mean ± standard deviation) [3, 4]: 0.21 ± 0.04 cm^3; Inhibitory percentage compared to negative control [3, 5]: 27.0%; Infarcted volume (Mean ± standard deviation) [3, 5]: 0.31 ± 0.02 cm^3; Inhibitory percentage compared to negative control [3, 6]: 22.8%; Infarcted volume (Mean ± standard deviation) [3, 6]: 0.33 ± 0.02 cm^3; Inhibitory percentage compared to negative control [3, 7]: 34.4%; Infarcted volume (Mean ± standard deviation) [3, 7]: 0.28 ± 0.08 cm^3; Inhibitory percentage compared to negative control [3, 8]: 13.3%; Infarcted volume (Mean ± standard deviation) [3, 8]: 0.37 ± 0.06 cm^3; Inhibitory percentage compared to negative control [3, 9]: 8.7%; Infarcted volume (Mean ± standard deviation) [3, 9]: 0.39 ± 0.06 cm^3; Inhibitory percentage compared to negative control [3, 10]: 7.4%; Infarcted volume (Mean ± standard deviation) [3, 10]: 0.40 ± 0.08 cm^3; Inhibitory percentage compared to negative control [3, 11]: 8.8%; Infarcted volume (Mean ± standard deviation) [3, 11]: 0.39 ± 0.05 cm^3; Inhibitory percentage compared to negative control [3, 12]: 55.4%; Infarcted volume (Mean ± standard deviation) [3, 12]: 0.19 ± 0.06 cm^3; Treatment time after reperfusion giving the maximum effect ([3]; positive control, iv): 30 min

From US8404696B2, “Quinazoline-2,4-dione derivative, and medical compositions for the prophylaxis and treatment of cranial nerve disease containing the same” (Shin Poong Pharmaceutical Co., Ltd., priority 2008, dated 2013)
